# Measured values taken from ChEMBL document CHEMBL4396916, “Novel potent substituted 4-amino-2-thiopyrimidines as dual VEGFR-2 and BRAF kinase inhibitors” (Eur J Med Chem, 2019).
# Key:
# RXF 393 = experiment: Growth inhibition of human RXF393 cells at 10 uM incubated for 48 hrs by sulforhodamine B assay relative to control; format: functional; settings: RXF 393, 48 h, read-out: GI
# T47D [1] = experiment: Growth inhibition of human T47D cells at 10 uM incubated for 48 hrs by sulforhodamine B assay relative to control; format: functional; settings: read-out: GI
# OVCAR-8 = experiment: Growth inhibition of human OVCAR8 cells at 10 uM incubated for 48 hrs by sulforhodamine B assay relative to control; format: functional; settings: OVCAR-8, 48 h, read-out: GI
# [2] = molecular target: Vascular endothelial growth factor receptor 2 (Homo sapiens, UniProt P35968); experiment: Inhibition of human N-terminal GST tagged VEGFR-2 expressed in baculovirus infected Sf9 cells using poly (Glu,Tyr) 4:1 as substrate in presence of ATP by Kinase-Glo luminescence assay
# OVCAR-3 = experiment: Growth inhibition of human OVCAR3 cells at 10 uM incubated for 48 hrs by sulforhodamine B assay relative to control; format: functional; settings: OVCAR-3, 48 h, read-out: GI
# SNB-19 = experiment: Growth inhibition of human SNB19 cells at 10 uM incubated for 48 hrs by sulforhodamine B assay relative to control; format: functional; settings: SNB-19, 48 h, read-out: GI
# IGROV-1 = experiment: Growth inhibition of human IGROV1 cells at 10 uM incubated for 48 hrs by sulforhodamine B assay relative to control; format: functional; settings: IGROV-1, 48 h, read-out: GI
# HT-29 = experiment: Growth inhibition of human HT-29 cells at 10 uM incubated for 48 hrs by sulforhodamine B assay relative to control; format: functional; settings: HT-29, 48 h, read-out: GI
# CAKI-1 = experiment: Growth inhibition of human Caki1 cells at 10 uM incubated for 48 hrs by sulforhodamine B assay relative to control; format: functional; settings: CAKI-1, 48 h, read-out: GI
# MOLT-4 = experiment: Growth inhibition of human MOLT4 cells at 10 uM incubated for 48 hrs by sulforhodamine B assay relative to control; format: functional; settings: MOLT-4, 48 h, read-out: GI
# BT-549 = experiment: Growth inhibition of human BT549 cells at 10 uM incubated for 48 hrs by sulforhodamine B assay relative to control; format: functional; settings: BT-549, 48 h, read-out: GI
# MDA-MB-468 = experiment: Growth inhibition of human MDA-MB-468 cells at 10 uM incubated for 48 hrs by sulforhodamine B assay relative to control; format: functional; settings: MDA-MB-468, 48 h, read-out: GI
# K562 = experiment: Growth inhibition of human K562 cells at 10 uM incubated for 48 hrs by sulforhodamine B assay relative to control; format: functional; settings: K562, 48 h, read-out: GI
# MCF7 [3] = experiment: Inhibition of VEGFR2 level in human MCF7 cells at 10 uM measured after 48 hrs by ELISA relative to control; format: functional; settings: MCF7, 48 h
# KM12 = experiment: Growth inhibition of human KM12 cells at 10 uM incubated for 48 hrs by sulforhodamine B assay relative to control; format: functional; settings: KM12, 48 h, read-out: GI
# MCF7 [4] = experiment: Cytotoxicity against human MCF7 cells expressing VEGFR2 and wild type BRAF measured after 48 hrs by sulforhodamine B assay; format: functional, cell-based; settings: MCF7, 48 h
# A498 = experiment: Growth inhibition of human A498 cells at 10 uM incubated for 48 hrs by sulforhodamine B assay relative to control; format: functional; settings: A498, 48 h, read-out: GI
# HCT-15 = experiment: Growth inhibition of human HCT15 cells at 10 uM incubated for 48 hrs by sulforhodamine B assay relative to control; format: functional; settings: HCT-15, 48 h, read-out: GI
# OVCAR-4 = experiment: Growth inhibition of human OVCAR4 cells at 10 uM incubated for 48 hrs by sulforhodamine B assay relative to control; format: functional; settings: OVCAR-4, 48 h, read-out: GI
# NCI-H522 = experiment: Growth inhibition of human NCI-H522 cells at 10 uM incubated for 48 hrs by sulforhodamine B assay relative to control; format: functional; settings: NCI-H522, 48 h, read-out: GI
# HCT-116 = experiment: Growth inhibition of human HCT116 cells at 10 uM incubated for 48 hrs by sulforhodamine B assay relative to control; format: functional; settings: HCT-116, 48 h, read-out: GI
# MCF7 [5] = experiment: Growth inhibition of human MCF7 cells at 10 uM incubated for 48 hrs by sulforhodamine B assay relative to control; format: functional; settings: MCF7, 48 h, read-out: GI
# SN12C = experiment: Growth inhibition of human SN12C cells at 10 uM incubated for 48 hrs by sulforhodamine B assay relative to control; format: functional; settings: read-out: GI
# HOP-92 = experiment: Growth inhibition of human HOP92 cells at 10 uM incubated for 48 hrs by sulforhodamine B assay relative to control; format: functional; settings: HOP-92, 48 h, read-out: GI
# NCI-H226 = experiment: Growth inhibition of human NCI-H226 cells at 10 uM incubated for 48 hrs by sulforhodamine B assay relative to control; format: functional; settings: NCI-H226, 48 h, read-out: GI
# MDA-MB-231 = experiment: Growth inhibition of human MDA-MB-231 cells at 10 uM incubated for 48 hrs by sulforhodamine B assay relative to control; format: functional; settings: MDA-MB-231, 48 h, read-out: GI
# MDA-MB-435 = experiment: Growth inhibition of human MDA-MB-435 cells at 10 uM incubated for 48 hrs by sulforhodamine B assay relative to control; format: functional; settings: MDA-MB-435, 48 h, read-out: GI
# UO-31 = experiment: Growth inhibition of human UO31 cells at 10 uM incubated for 48 hrs by sulforhodamine B assay relative to control; format: functional; settings: UO-31, 48 h, read-out: GI
# CCRF-CEM = experiment: Growth inhibition of human CCRF-CEM cells at 10 uM incubated for 48 hrs by sulforhodamine B assay relative to control; format: functional; settings: read-out: GI
# NCI-H460 = experiment: Growth inhibition of human NCI-H460 cells at 10 uM incubated for 48 hrs by sulforhodamine B assay relative to control; format: functional; settings: NCI-H460, 48 h, read-out: GI
# M14 = experiment: Growth inhibition of human M14 cells at 10 uM incubated for 48 hrs by sulforhodamine B assay relative to control; format: functional; settings: M14, 48 h, read-out: GI
# NCI/ADR-RES = experiment: Growth inhibition of human NCI/ADR-RES cells at 10 uM incubated for 48 hrs by sulforhodamine B assay relative to control; format: functional; settings: read-out: GI
# SNB-75 = experiment: Growth inhibition of human SNB75 cells at 10 uM incubated for 48 hrs by sulforhodamine B assay relative to control; format: functional; settings: SNB-75, 48 h, read-out: GI
# LOX IMVI = experiment: Growth inhibition of human LOXIMVI cells at 10 uM incubated for 48 hrs by sulforhodamine B assay relative to control; format: functional; settings: read-out: GI
# SF-539 = experiment: Growth inhibition of human SF539 cells at 10 uM incubated for 48 hrs by sulforhodamine B assay relative to control; format: functional; settings: SF-539, 48 h, read-out: GI
# T47D [6] = experiment: Cytotoxicity against human T47D cells expressing wild type BRAF measured after 48 hrs by sulforhodamine B assay; format: functional, cell-based
# EKVX = experiment: Growth inhibition of human EKVX cells at 10 uM incubated for 48 hrs by sulforhodamine B assay relative to control; format: functional; settings: read-out: GI
# PC-3 = experiment: Growth inhibition of human PC3 cells at 10 uM incubated for 48 hrs by sulforhodamine B assay relative to control; format: functional; settings: PC-3, 48 h, read-out: GI
# Hs-578T = experiment: Growth inhibition of human Hs578T cells at 10 uM incubated for 48 hrs by sulforhodamine B assay relative to control; format: functional; settings: read-out: GI
# SK-MEL-5 = experiment: Growth inhibition of human SK-MEL-5 cells at 10 uM incubated for 48 hrs by sulforhodamine B assay relative to control; format: functional; settings: SK-MEL-5, 48 h, read-out: GI
# SR = experiment: Growth inhibition of human SR cells at 10 uM incubated for 48 hrs by sulforhodamine B assay relative to control; format: functional; settings: read-out: GI
# RPMI-8226 = experiment: Growth inhibition of human RPMI8226 cells at 10 uM incubated for 48 hrs by sulforhodamine B assay relative to control; format: functional; settings: RPMI-8226, 48 h, read-out: GI
# NCI-H23 = experiment: Growth inhibition of human NCI-H23 cells at 10 uM incubated for 48 hrs by sulforhodamine B assay relative to control; format: functional; settings: NCI-H23, 48 h, read-out: GI
# UACC-62 = experiment: Growth inhibition of human UACC62 cells at 10 uM incubated for 48 hrs by sulforhodamine B assay relative to control; format: functional; settings: UACC-62, 48 h, read-out: GI
# Chain of Vascular endothelial growth factor receptor 2 (P35968 whole entry): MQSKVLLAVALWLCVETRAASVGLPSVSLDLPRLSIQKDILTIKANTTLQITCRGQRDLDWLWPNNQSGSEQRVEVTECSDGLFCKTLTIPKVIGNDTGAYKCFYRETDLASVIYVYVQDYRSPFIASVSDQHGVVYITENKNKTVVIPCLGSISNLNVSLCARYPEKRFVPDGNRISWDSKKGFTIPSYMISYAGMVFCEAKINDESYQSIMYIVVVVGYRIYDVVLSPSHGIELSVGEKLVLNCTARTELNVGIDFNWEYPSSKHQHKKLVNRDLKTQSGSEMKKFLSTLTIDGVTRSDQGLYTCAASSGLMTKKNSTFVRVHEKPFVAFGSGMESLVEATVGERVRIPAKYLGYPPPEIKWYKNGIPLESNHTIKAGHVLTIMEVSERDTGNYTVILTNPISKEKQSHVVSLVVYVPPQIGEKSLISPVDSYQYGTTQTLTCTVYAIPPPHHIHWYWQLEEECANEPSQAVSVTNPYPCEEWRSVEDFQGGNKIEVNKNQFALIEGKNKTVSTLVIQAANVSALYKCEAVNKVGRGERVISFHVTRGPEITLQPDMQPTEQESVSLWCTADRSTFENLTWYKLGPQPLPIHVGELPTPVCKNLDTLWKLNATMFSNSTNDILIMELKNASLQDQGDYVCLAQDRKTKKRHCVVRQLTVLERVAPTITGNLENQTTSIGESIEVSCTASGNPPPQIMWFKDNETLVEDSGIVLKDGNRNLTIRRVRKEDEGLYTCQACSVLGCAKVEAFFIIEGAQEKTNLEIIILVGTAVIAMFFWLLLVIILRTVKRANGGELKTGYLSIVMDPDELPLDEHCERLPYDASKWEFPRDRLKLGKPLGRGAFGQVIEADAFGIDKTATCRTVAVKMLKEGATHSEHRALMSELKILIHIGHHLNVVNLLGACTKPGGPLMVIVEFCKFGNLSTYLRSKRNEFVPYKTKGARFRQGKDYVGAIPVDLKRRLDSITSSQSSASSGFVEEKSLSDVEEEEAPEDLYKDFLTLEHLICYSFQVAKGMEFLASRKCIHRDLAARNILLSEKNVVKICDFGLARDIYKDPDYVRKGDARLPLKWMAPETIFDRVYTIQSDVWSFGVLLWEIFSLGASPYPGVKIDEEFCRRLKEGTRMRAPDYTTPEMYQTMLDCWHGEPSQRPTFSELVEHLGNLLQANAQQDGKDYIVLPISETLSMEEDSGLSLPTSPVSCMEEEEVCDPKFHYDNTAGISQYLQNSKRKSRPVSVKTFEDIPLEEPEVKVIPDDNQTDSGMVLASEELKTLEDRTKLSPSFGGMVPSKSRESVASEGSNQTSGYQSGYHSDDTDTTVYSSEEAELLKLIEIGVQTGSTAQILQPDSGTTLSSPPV
smiles,measurement,setting,value
COc1ccc(C(=O)CSc2nccc(Nc3cccc(C(C)=O)c3)n2)cc1,inhibition of growth at 10 µM,RXF 393,14%
same,inhibition of growth at 10 µM,T47D [1],45%
same,inhibition of growth at 10 µM,OVCAR-8,32%
same,IC50,[2],0.42 µM
same,inhibition of growth at 10 µM,OVCAR-3,12%
same,inhibition of growth at 10 µM,SNB-19,13%
same,inhibition of growth at 10 µM,IGROV-1,18%
same,inhibition of growth at 10 µM,HT-29,11%
same,inhibition of growth at 10 µM,CAKI-1,35%
same,inhibition of growth at 10 µM,MOLT-4,53%
same,inhibition of growth at 10 µM,BT-549,27%
same,inhibition of growth at 10 µM,MDA-MB-468,34%
same,inhibition of growth at 10 µM,K562,37%
same,inhibition at 10 µM,MCF7 [3],16%
same,inhibition of growth at 10 µM,KM12,15%
same,IC50,MCF7 [4],67.1 µM
same,inhibition of growth at 10 µM,A498,22%
same,inhibition of growth at 10 µM,HCT-15,22%
same,inhibition of growth at 10 µM,OVCAR-4,19%
same,inhibition of growth at 10 µM,NCI-H522,37%
same,inhibition of growth at 10 µM,HCT-116,23%
same,inhibition of growth at 10 µM,MCF7 [5],11%
same,inhibition of growth at 10 µM,SN12C,22%
same,inhibition of growth at 10 µM,HOP-92,24%
same,inhibition of growth at 10 µM,NCI-H226,35%
same,inhibition of growth at 10 µM,MDA-MB-231,27%
same,inhibition of growth at 10 µM,MDA-MB-435,15%
same,inhibition of growth at 10 µM,UO-31,55%
same,inhibition of growth at 10 µM,CCRF-CEM,46%
same,inhibition of growth at 10 µM,NCI-H460,14%
same,inhibition of growth at 10 µM,M14,15%
same,inhibition of growth at 10 µM,NCI/ADR-RES,40%
same,inhibition of growth at 10 µM,SNB-75,31%
same,inhibition of growth at 10 µM,LOX IMVI,23%
same,inhibition of growth at 10 µM,SF-539,12%
same,IC50,T47D [6],13.2 µM
same,inhibition of growth at 10 µM,EKVX,29%
same,inhibition of growth at 10 µM,PC-3,37%
same,inhibition of growth at 10 µM,Hs-578T,19%
same,inhibition of growth at 10 µM,SK-MEL-5,22%
same,inhibition of growth at 10 µM,SR,35%
same,inhibition of growth at 10 µM,RPMI-8226,42%
same,inhibition of growth at 10 µM,NCI-H23,19%
same,inhibition of growth at 10 µM,UACC-62,35%
